# Source: US20230265068A1, “TRANSIENT RECEPTOR POTENTIAL CANONICAL 3 INHIBITORS AND METHODS OF USE THEREOF” (University of Tennessee Research Foundation, priority 2020, published 2023)
# What was measured:
# [1] = tested on: pilocarpine-induced seizures; experiment: mouse pilocarpine model of SE; format: in vivo, mice
# Protocol: (FIG. 7A) Mice were treated by pilocarpine (220 mg/kg, i.p.) for seizure induction, and behavioral seizures were scored every 5 min based a modified Racine scale. After stage-2 behavioral seizures were established (usually about 15-20 min after pilocarpine injection), mice were treated by either vehicle or compound 22 (100 mg/kg, i.p.). […] (FIG. 7B) Maximal seizure scores in mice after pilocarpine injection (p<0.0001, t-test). (FIG. 7C) Latency to partial (stage-3) seizures (p=0.0002, t-test). (FIG. 7D) Latency to generalized (stage-4) seizures (p=0.0001, t-test). (FIG. 7E) Percentage of animals that experienced stage-5 seizures or SE (p<0.0001, Fisher's exact test). (FIG. 7F) Percentage of animals survived pilocarpine-induced seizures (p=0.1649, Fisher's exact test). Data are presented as mean+/±SEM.
# Mouse Pilocarpine Model of SE. Mice were first injected with methylscopolamine and terbutaline (2 mg/kg each in saline, i.p.) to minimize the unwanted effects of pilocarpine in the periphery. Thirty minutes later, pilocarpine (250 mg/kg in saline, freshly prepared, i.p.) was injected to induce seizures in mice. To determine the anti-seizure effects of compound 22, compound 22 was administered either before pilocarpine injection or after the behavioral seizures were well established. Control mice received methylscopolamine and terbutaline, followed by saline injection instead of pilocarpine. Behavioral seizures were classified using a modified Racine scale as we previously described (Table 5).^22-25 SE was defined by non-intermittent seizure activity (stage 5), which was indicated by continuous generalized clonic seizures without returning to lower-stage seizures (Table 5).
# [2] = tested on: hippocampal neurons; experiment: toxicity of compound alone in hippocampal neuronal culture; format: cell-based, rat; details: compound alone at different concentrations
# Protocol: To explore the potential biological effects of compound 22 in a TRPC3 related disease model, its neuroprotective ability in primary cultured neurons (14 DIV prepared from E17 rats as described) was evaluated. The effects on neuron dendritic morphology were measured by imaging. Mature hippocampal neurons (DIV=14) were treated with CHO control medium, or naturally secreted Aβ-containing conditioned medium (7PA2), or in combination with compound 22 or Pyr3 at different concentrations, for 16 hours, followed by immunocytochemistry using an antibody against MAP2 and DAPI (data not shown). […] Hippocampal neurons (DIV=14) were treated with compound 22 or Pyr3 alone at different concentrations, followed by immunocytochemistry staining with MAP2 and DAPI (data not shown).
# [3] = maximum tolerated dose / in vivo toxicity study in mice; details: 200 mg/kg/day IP for five consecutive days
# Protocol: The in vivo study was performed in compliance with the NIH Animal Use Guidelines and protocol approved by the Institutional Animal Care and Use Committee (IACUC) at the University of Tennessee Health Science Center (UTHSC, Memphis, Tenn.). NSG mice at 8 weeks (n=2) and ICR mice at 12 weeks (n=3) were housed with a 12:12-hour light-dark cycle and fed a breeder chow diet. Daily IP injections of 200 mg/kg of compounds 22 or 79 were administered for five consecutive injections in five mice, respectively, which were followed to monitor the mortality rate. Body weights of the mice were recorded daily.
# (§1) The metabolic stability of compound 22 was tested prior to the next phase of in vivo study. […] The maximum tolerated dose (MTD) study was subsequently performed to investigate its in vivo toxicity (FIGS. 4A and 4B). The second major limitation of Pyr3 is its toxicity due to its alkylating tail moiety. While replacing only the fast-metabolizing head ester group in Pyr3 with a stable amide (compound 79) improved metabolic stability, a single IP injection of compound 79 at 200 mg/kg killed all mice within 24 h.
# Compound 79 is a metabolically stable version of Pyr3. Mice treated daily with compound 22 or compound 79 (n=5) for 5 consecutive days. All the mice were treated with either compound 22 or 79 at 200 mg/kg (IP). […]
# [4] = metabolic stability in rat liver microsomes; format: in vitro ADME; details: rat, microsomes
# Protocol: as §1
# [5] = single dose 100 mg/kg, i.p after onset of seizures (stage 2)
structure (smiles),measurement,setting,value
CCNC(=O)c1cnn(-c2ccc(-n3ccc(Cl)c(Cl)c3=O)cc2)c1C(F)(F)F [Compound 22],scores of pilocarpine-induced seizures (modified Racine scale),"[1]; 100 mg/kg, i.p. after stage-2 seizures established, vs vehicle",reduced the scores of pilocarpine-induced seizures
same,electrographic seizures (electroencephalography),[1]; after pilocarpine injection,diminished electrographic seizures
same,maximal seizure scores during a 90-minute observation,[1]; [5],decreased
same,overall seizure intensity,[1]; [5],decreased the overall seizure intensity
same,initiation of behavioral seizures,[1]; systemic treatment before pilocarpine injection,significantly impaired the initiation of behavioral seizures
same,toxicity in neuronal culture,[2],lack of toxicity
same,acute toxicities / body weight loss,[3],no acute toxicities or body weight loss
same,half-life,[4],> 4 h
